Measured values as given in patent publication US20040259096A1, “Receptor capture assay” (priority 2001, published 2004).

What was measured:
AhR = target: T1, AhR (Cavia porcellus, UniProt Q6J287); assay: Receptor capture assay, real-time PCR, rodent cytosol as source of AhR; assay type: biochemical; parameters: EC50 of dose-response curve; other: TCDD and BNF curves performed simultaneously; slope of dose-response curve; settings: TCDD and BNF curves performed simultaneously
T1 sequence (Q6J287 1-846): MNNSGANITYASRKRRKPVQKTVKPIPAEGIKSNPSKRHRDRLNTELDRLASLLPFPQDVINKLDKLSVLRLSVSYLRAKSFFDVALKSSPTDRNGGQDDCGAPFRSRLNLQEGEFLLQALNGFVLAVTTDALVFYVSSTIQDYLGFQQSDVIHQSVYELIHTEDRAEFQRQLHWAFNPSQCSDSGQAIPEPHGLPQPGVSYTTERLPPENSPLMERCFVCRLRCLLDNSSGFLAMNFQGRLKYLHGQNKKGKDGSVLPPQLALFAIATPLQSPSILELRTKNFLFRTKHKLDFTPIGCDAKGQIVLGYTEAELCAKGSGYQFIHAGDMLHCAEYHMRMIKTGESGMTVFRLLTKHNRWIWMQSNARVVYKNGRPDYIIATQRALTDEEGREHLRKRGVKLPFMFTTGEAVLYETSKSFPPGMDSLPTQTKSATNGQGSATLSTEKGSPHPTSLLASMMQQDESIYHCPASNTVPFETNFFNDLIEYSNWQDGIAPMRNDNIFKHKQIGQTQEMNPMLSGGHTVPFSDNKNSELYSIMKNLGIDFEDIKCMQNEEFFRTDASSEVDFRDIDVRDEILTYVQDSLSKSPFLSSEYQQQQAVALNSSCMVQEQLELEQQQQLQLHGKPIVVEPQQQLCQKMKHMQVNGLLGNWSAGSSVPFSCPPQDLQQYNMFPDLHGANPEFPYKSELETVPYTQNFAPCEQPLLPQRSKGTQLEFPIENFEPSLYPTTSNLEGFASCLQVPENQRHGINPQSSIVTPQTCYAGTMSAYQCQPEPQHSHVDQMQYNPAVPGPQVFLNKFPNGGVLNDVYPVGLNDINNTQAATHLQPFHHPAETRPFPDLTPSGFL
Experimental: A set of calibrators consisting of 5000, 2500, 1250, […], 313, 156, and 78 parts per trillion (ppt or pg/ml) 2,3,7,8-tetrachlorodibenzo-p-dioxin (TCDD) was prepared in methanol. In addition to TCDD a set of calibrators for AhR agonist, beta-naphthoflavone (BNF) was prepared and analyzed in the assay. Separately, 25 ul of 1:50,000 dilution of 10 uM stock nucleic acid-tracer was added per 1 ml of rodent cytosol, which was the source of AhR, and was aliquoted into glass tubes. The standards were diluted 1:20 into 50-100 ul of rodent cytosol, and incubated for 1-2 hr at room temperature to 37° C. Following incubation, 40 to 100 ul of the reaction was transferred to each well of the antibody-coated Capture Strip and incubated on a shaking platform for 30 min to 1 hr at room temperature. The Capture Strips were washed 5 times with Wash Buffer B, and aspirated; optionally soaking wells for 30 sec-5 min with wash buffer during each cycle. Taqman® Universal PCR Master Mix, primers, and Taqman® probe (Applied Biosystems, Calif.) were added, and adhesive cover applied. PCR was performed and analyzed using an ABI PRISM® 7700, using default settings: 50° C., 2 min, 95° C. 10 min, and 40 cycles of [95° C., 15 sec, 60° C., 60 sec]. A threshold cycle (Ct) was determined for each reaction The Ct represents the PCR cycle at which an increase in reporter fluorescence above baseline signal can first be detected.

Ah receptor [1] = assay: Biotinylated ARNT assay, neutravidin capture, PCR and gel densitometry; assay type: biochemical; settings: 1 μl of 1 nM beta-naphthoflavone
Experimental: Activation of the Ah receptor with dose was performed in a microfuge tube containing 50 μl of Ah receptor preparation, 1 μl of 200 μg/ml biotinylated ARNT, and 1 μl of 1 nM beta-naphthoflavone and incubated for 1 hr at 30° C. To minimize non-specific interactions, 1-2 μg of salmon sperm DNA was added to the activated complex, along with NaCl to a final concentration of 60 mM. After 10 min at room temperature, varying amounts of nucleic acid-tracer (50-500 fmole) was added, and the reaction allowed to incubate for an additional 10 min at room temperature. The reaction mix (40 μl) was transferred to a neutravidin-coated plate and incubated for 30 min on a Wallac plate shaker at room temperature. The wells were washed five times with Wash Buffer B, soaking wells for 3 min with wash buffer during each cycle, followed by two washes with ultrapure water.
For PCR analysis, 50 μl of PCR reagent was added and the well contents were subjected to 28 cycles of PCR amplification, using GeneAmp PCR System 2700 (Applied Biosystems, Foster City, Calif.). PCR was performed using 50 μl of PCR Master Mix (Promega, Madison, Wis.) diluted to the appropriate concentration with nuclease-free water and 1 μM of each primer was used per PCR reaction. Following the addition of PCR mix, the microtiter strip was sealed with adhesive and placed in the thermocylcer. Samples were initially heated to 95° C. for 5 min to denature the Ah receptor/ARNT complex and free the nucleic acid for PCR analysis then subjected to 28 cycles of 94° C., 30 sec, 52° C., 30 sec, 72° C., 45 sec, followed by 72° C. for 5 min, then cooling to 4° C.
PCR product, 20 μl, was analyzed by 4% agarose gel electrophoresis, with PCR product visualized under UV light by ethidium bromide staining UV light-illuminated gels were photographed using a Polaroid MP 4 Land Camera and Polaroid Type 55 film. Transmission densitometry with film negatives was performed and areas under the peak calculated using arbitrary units.

Ah receptor [2] = settings: Carver et al., 1994 JBC 269:30109-30112; cited from earlier work

SMILES | slope of dose-response curve (AhR) | EC50 (AhR; read-out: EC50 of dose-response curve) | area under the peak, PCR product densitometry (Ah receptor [1]; Nucleic Acid-Tracer 63 fmol) | area under the peak, PCR product densitometry (Ah receptor [1]; Nucleic Acid-Tracer 125 fmol) | area under the peak, PCR product densitometry (Ah receptor [1]; Nucleic Acid-Tracer 250 fmol) | area under the peak, PCR product densitometry (Ah receptor [1]; Nucleic Acid-Tracer 500 fmol) | affinity for the Ah receptor relative to TCDD (Ah receptor [2])
O=c1cc(-c2ccccc2)oc2ccc3ccccc3c12 [BNF, beta-naphthoflavone] | −0.7637 | 0.04 nM | 459 arbitrary units | 349 arbitrary units | 392 arbitrary units | 392 arbitrary units | approximately an order of magnitude less affinity for the Ah receptor than TCDD
Clc1cc2c(cc1Cl)Oc1cc(Cl)c(Cl)cc1O2 [TCDD, 2,3,7,8-tetrachlorodibenzo-p-dioxin] | −1.195 | – | – | – | – | – | –
